The numbers were not newly measured in patent US7985754B2, “Selective antagonists of A2A adenosine receptors” (Trovis Pharmaceuticals, LLC, priority 2006, dated 2011), which cites them from elsewhere.

The conditions of data set [1]: in words.
The conditions of data set [2]: in words. The source holds these as a separate data set.

On to `Nc1nc(NCCc2ccc(O)cc2)nc2nc(-c3ccco3)nn12` [ZM241385], for which, in data set [1], the bioavailability entry is reported as “poor bioavailability”. `Nc1nc2c(cnn2CCc2ccccc2)c2nc(-c3ccco3)nn12` [SCH58261]: in data set [2], the solubility result was “very poorly soluble”.
